Source: publication doi:10.1101/2024.10.14.618151v1 (bioRxiv, 2024)
Non-standard residues stand in square brackets, D forms with d. Residues, ends and D or L forms follow the SMILES beside them. No end group written: not given here. pGlu = O=C1CC[C@@H](C(=O)O)N1

Test system: PBL migration across TNF-α/IFN-γ-stimulated endothelial cells (HDBEC)
Settings: for IC50: 24 h

Row | IC50 | Compound | effect on lymphocyte migration in vitro
1 | 0.0032 nM | C[C@H](NC(=O)CNC(=O)[C@@H]1CCC(=O)N1)C(N)=O [[PyroGlu]-GA-NH2] ([pGlu]-Gly-Ala-NH2) | –
2 | 0.024 nM | CC(C)[C@@H](NC(=O)[C@H](N)[C@H](C)O)C(=O)N[C@H](CO)C(N)=O [tvs-NH2] (H-[dT]-[dV]-[dS]-NH2) | –
3 | 0.045 nM | SVTEQGAELSNEER [PEPITEM] | –
4 | – | SVTEQGA | full activity
